Results published in PMC4445981, “The glutamate transport inhibitor DL-Threo-β-Benzyloxyaspartic acid (DL-TBOA) differentially affects SN38- and oxaliplatin-induced death of drug-resistant colorectal cancer cells” (BMC Cancer, 2015).

Test system: parental LoVo cells
Assay: MTT viability assay, parental LoVo cells
Format: cell-based, human
Conditions: 350 μM DL-TBOA, 48 h
Description: Fig. 2 DL-TBOA augments SN38-induced death in SN38-resistant cells, but protects oxaliplatin-resistant cells from oxaliplatin-induced death. Parental and drug-resistant HCT116 and LoVo cell lines seeded in 96-well dishes were exposed to SN38 (0.1 or 0.8 μM) or oxaliplatin (0.8 or 20 μM), alone or in combination with 70 or 350 μM DL-TBOA as indicated, for 48 h. Viability was assessed by MTT assay. a-b Parental HCT116 cells, (c) SN38 resistant HCT116 cells, (d) Oxaliplatin-resistant HCT116 cells, (e-f) Parental LoVo cells, (g) SN38 resistant LoVo cells, (h) Oxaliplatin-resistant LoVo cells. Data are means with S.E.M. error bars of 3 independent experiments. *) p < 0.05, **) p < 0.01, ***) p < 0.001 compared to the control group without drug or TBOA treatment; #) p < 0.05 compared to controls without TBOA treatment. One-way ANOVA followed by Dunnett post-test
Cells were seeded at appropriate density (LoVo 10,000, and HCT116 5000 cells /100 μl) in growth medium in 96-well plates. Next day, cells were treated with inhibitors and/or chemotherapy in a total volume of 200 μl in growth medium and incubated for 48 h at 37 °C, 5 % CO2. […] Absorbance was measured in an ELISA plate reader (Thermo Scientific MultiScan FC) at 550 nm. Data were background subtracted and % viability relative to controls calculated.

With N[C@H](C(=O)O)[C@H](OCc1ccccc1)C(=O)O (racemic) [TBOA, DL-Threo-β-Benzyloxyaspartic acid] the “effect on loss of viability induced by 0.8 μM oxaliplatin” value was “essentially abolished the loss of viability”.
